Common to all, as to format: cell-based
The test system of assay [1] is HIV-1 HBX2 (wild type). The assay can be described thus: High throughput cytopathic effect assay in MT-4 cells, wild type HIV-1. An excerpt:
(§1) Compounds were screened in a miniaturized, high throughput cytopathic effect assay for activity against HIV-1 HBX2 (wild type) and HIV-1 reverse transcriptase mutants K103N and Y181C. In Tables 1 and 2 below. “w.t.” refers to results of the tested compounds run with the wildtype 1 and “w.t, assay 2” refers results of the tested compounds run with the wildtype on the same day as the testing of the compounds with the mutants. Thus, “w.t, assay 2” was run under the same conditions as the testing of the compounds with the mutants and provides a direct comparison with the results from the testing with the mutants.
(§2) Ten-point serial dilutions of compounds with half-log step size were generated in DMSO. AZT ([…]) was used as the positive control and DMSO as the negative control. The Echo acoustic dispenser was used to deliver 200 nL of serially diluted compound into sterile 384 well tissue culture assay plates. Two million MT-4 cells were incubated with each of the 3 viruses at MOI of 0.0005 in separate 1 mL infection tubes for 1 hour at 37° C. The cells were diluted in cell culture medium (RPMI+10% FBS) to 50.000 cells/mL. The infected cells were added to 384 well assay plates containing serially dilute compounds. Assay plates were incubated for 5 days in a humidified incubator set at 37° C. and 5% CO2. To measure the cytopathic effect of HIV, 40 μL Cell TiterGlo was added to each well and the resulting luminescence signal is read with the Envision plate reader (Perkin Elmer). Data were normalized to positive and negative controls in each plate and expressed as % CPE Protection. EC50 values were defined as the compound concentration that caused a 50% decrease in luminescence signal, and were calculated by non-linear regression using Pipeline Pilot software by applying a four parameter fit equation (Accelrys, San Diego, Calif.).
(In general: Protection from cytopathic effect is a common read-out in antiviral testing.)

Assay [2] deals with HIV-1 reverse transcriptase mutant Y181C. The assay can be described thus: High throughput cytopathic effect assay in MT-4 cells, Y181C mutant. The settings on record: for EC50: Human immunodeficiency virus 1, MT4, 120 h, read-out: MT4 EC50 (nM) against Y181C; for FC against mutant Y181C: fold change of MT4 EC50 versus w.t. assay 2.
From the text: as §1, §2

Assay [3] relates to HIV-1 reverse transcriptase mutant K103N. The assay can be described thus: High throughput cytopathic effect assay in MT-4 cells, K103N mutant. The settings on record: for EC50: Human immunodeficiency virus 1, MT4, 120 h, read-out: MT4 EC50 (nM) against K103N; for FC against mutant K103N: fold change of MT4 EC50 versus w.t. assay 2.
From the text: as §1, §2

Setting [4] is: Human immunodeficiency virus 1, MT4, 120 h, MT-4 cells, 5 days, cytopathic effect, Cell TiterGlo, read-out: MT4 EC50 (nM) against w.t.
Where [5] appears, read: Human immunodeficiency virus 1, MT4, read-out: MT4 EC50 (nM) against w.t. assay 2.

These results are taken from patent publication US10548898B2, “Quinazoline compounds” (Gilead Sciences, Inc., priority 2014, dated 2020).

Like-named read-outs stand apart in the source and are kept apart here.

Broadly, the EC50 is the midpoint of the concentration-response curve. For `Cc1cc(/C=C/C#N)cc(C)c1-c1cc(Br)cc2c(N)nc(Nc3ccc(C#N)cc3)nc12` [Compound 25, (E)-4-((4-Amino-6-bromo-8-(4-(2-cyanovinyl)-2,6-dimethylphenyl)quinazolin-2-yl)amino)benzonitrile], the EC50 in assay [1] (setting [4]) is 39.1 nM; in assay [1] (setting [5]), 28.3 nM; in assay [2], 160 nM; in assay [3], 44.1 nM. Further, in assay [2], the “FC against mutant Y181C” value turned out to be 5.6. Also, the “FC against mutant K103N” value in assay [3] was determined as 1.6.
As to `C/C(=C/C#N)c1cc(C)c(-c2cccc3c(N)nc(Nc4ccc(C#N)cc4)nc23)c(C)c1` [Compound 39, (Z)-4-((4-Amino-8-(4-(1-cyanoprop-1-en-2-yl)-2,6-dimethylphenyl)quinazolin-2-yl)amino)benzonitrile], the EC50 came to 5.9 nM in assay [1] (setting [4]), 8.9 nM in assay [1] (setting [5]), 27.2 nM in assay [2] and 12.1 nM in assay [3]. Besides, in assay [2], the “FC against mutant Y181C” value was 3.0. The “FC against mutant K103N” value in assay [3] was 1.4.
As to `COc1ccc(-c2c(C)cc(/C=C/C#N)cc2C)c2nc(Nc3ccc(C#N)cc3)nc(N)c12` [Compound 28, (E)-4-((4-Amino-8-(4-(2-cyanovinyl)-2,6-dimethylphenyl)-5-methoxyquinazolin-2-yl)amino)benzonitrile], the 50% effective concentration (EC50) in assay [1] (setting [4]) is 11.4 nM; in assay [1] (setting [5]), 9.1 nM; in assay [2] it was 57.2 nM; in assay [3], 14.3 nM. For the same molecule, the “FC against mutant Y181C” value in assay [2] worked out at 6.3. Moreover, the “FC against mutant K103N” value in assay [3] is 1.6.
With `Cc1cc(/C=C/C#N)cc(C)c1-c1cc(F)cc2c(N)nc(Nc3cnc(C#N)cn3)nc12` [Compound 26, (E)-5-((4-Amino-8-(4-(2-cyanovinyl)-2,6-dimethylphenyl)-6-fluoroquinazolin-2-yl)amino)pyrazine-2-carbonitrile], the concentration giving a half-maximal response (EC50) in assay [1] (setting [4]) was 2.7 nM; in assay [1] (setting [5]), 2 nM; in assay [2] it was 27.2 nM; in assay [3] it was 2.4 nM. For the same molecule, the “FC against mutant Y181C” value in assay [2] is 13.5. Besides, the “FC against mutant K103N” value in assay [3] stood at 1.2.
As for `COc1ccc(-c2c(C)cc(/C=C/C#N)cc2C)c2nc(Nc3ccc(C#N)cn3)nc(N)c12` [Compound 29, (E)-6-((4-Amino-8-(4-(2-cyanovinyl)-2,6-dimethylphenyl)-5-methoxyquinazolin-2-yl)amino)nicotinonitrile], the concentration giving a half-maximal response (EC50) is 22.1 nM in assay [1] (setting [4]), 18.6 nM in assay [1] (setting [5]), above 500 nM in assay [2] and 33.4 nM in assay [3]. In assay [2], the “FC against mutant Y181C” value is recorded as above 26.9. Moreover, the “FC against mutant K103N” value in assay [3] amounted to 1.8.
With `Cc1cc(/C=C/C#N)cc(C)c1-c1cc([N+](=O)[O-])cc2c(N)nc(Nc3ccc(C#N)cn3)nc12` [Compound 22, (E)-6-((4-Amino-8-(4-(2-cyanovinyl)-2,6-dimethylphenyl)-6-nitroquinazolin-2-yl)amino)nicotinonitrile], the EC50 in assay [1] (setting [4]) was 69.3 nM; in assay [1] (setting [5]), 87.5 nM; in assay [2], above 500 nM; in assay [3] it was 101 nM. Moreover, the “FC against mutant Y181C” value in assay [2] is listed as above 5.7. Besides, the “FC against mutant K103N” value in assay [3] is 1.2.
Regarding `CCc1cc(/C=C/C#N)cc(CC)c1-c1cccc2c(N)nc(Nc3ccc(C#N)cc3)nc12` [Compound 35, (E)-4-((4-Amino-8-(4-(2-cyanovinyl)-2,6-diethylphenyl)quinazolin-2-yl)amino)benzonitrile], the EC50 came to 12.8 nM in assay [1] (setting [4]), 16.8 nM in assay [1] (setting [5]), 38.6 nM in assay [2] and 16.9 nM in assay [3]. In assay [2], the “FC against mutant Y181C” value stood at 2.3. Further, in assay [3], the “FC against mutant K103N” value stood at 1.0.
As for `CNc1nc(Nc2ccc(C#N)cn2)nc2c(-c3c(C)cc(/C=C/C#N)cc3C)cccc12` [Compound 31, (E)-6-((8-(4-(2-Cyanovinyl)-2,6-dimethylphenyl)-4-(methylamino)quinazolin-2-yl)amino)nicotinonitrile], the half-maximal effective concentration (EC50) in assay [1] (setting [4]) turned out to be 10.5 nM; in assay [1] (setting [5]) it was 8.6 nM; in assay [2] it was 432 nM; in assay [3], 17.6 nM. Further, the “FC against mutant Y181C” value in assay [2] was 50.5. In addition, the “FC against mutant K103N” value in assay [3] is recorded as 2.1.
On to `COc1cc(/C=C/C#N)cc(OC)c1-c1cccc2c(N)nc(Nc3ccc(C#N)cc3)nc12` [Compound 32, (E)-4-((4-Amino-8-(4-(2-cyanovinyl)-2,6-dimethoxyphenyl)quinazolin-2-yl)amino)benzonitrile], for which the EC50 came to 1.9 nM in assay [1] (setting [4]), 1.3 nM in assay [1] (setting [5]), 10.5 nM in assay [2] and 11.5 nM in assay [3]. Further, the “FC against mutant Y181C” value in assay [2] came out at 8.3. In addition, the “FC against mutant K103N” value in assay [3] came out at 1.2.
In the case of `N#C/C=C/c1cc(F)c(-c2cccc3c(N)nc(Nc4ccc(C#N)cc4)nc23)c(F)c1` [Compound 8, (E)-4-((4-Amino-8-(4-(2-cyanovinyl)-2,6-difluorophenyl)quinazolin-2-yl)amino)benzonitrile], the EC50 in assay [1] (setting [4]) worked out at 2.7 nM; in assay [1] (setting [5]), 2.8 nM; in assay [2], 21.7 nM; in assay [3], 3.7 nM. For the same molecule, in assay [2], the “FC against mutant Y181C” value was 7.8. Further, the “FC against mutant K103N” value in assay [3] turned out to be 1.3.
In the case of `C/C(=C\C#N)c1cc(C)c(-c2cccc3c(N)nc(Nc4ccc(C#N)cc4)nc23)c(C)c1` [Compound 38, (E)-4-((4-Amino-8-(4-(1-cyanoprop-1-en-2-yl)-2,6-dimethylphenyl)quinazolin-2-yl)amino)benzonitrile], the EC50 in assay [1] (setting [4]) turned out to be 6 nM; in assay [1] (setting [5]) it was 7.9 nM; in assay [2], 18.6 nM; in assay [3], 7 nM. The “FC against mutant Y181C” value in assay [2] was 2.4. In addition, the “FC against mutant K103N” value in assay [3] was 0.9.
On to `COc1cc(-c2c(C)cc(/C=C/C#N)cc2C)c2nc(Nc3ccc(C#N)cn3)nc(N)c2c1` [Compound 24, (E)-6-((4-Amino-8-(4-(2-cyanovinyl)-2,6-dimethylphenyl)-6-methoxyquinazolin-2-yl)amino)nicotinonitrile], for which the EC50 in assay [1] (Human immunodeficiency virus 1, MT4, 120 h, read-out: MT4 EC50 (nM) against w.t.) is 27.8 nM; in assay [1] (setting [5]), 27.8 nM; in assay [2] it was 478 nM; in assay [3], 32.5 nM. Also, in assay [2], the “FC against mutant Y181C” value came out at 17.2. For the same molecule, the “FC against mutant K103N” value in assay [3] is given as 1.2.
For the molecule `Cc1cc(/C=C/C#N)cc(C)c1-c1cccc2c(N)nc(Nc3ccc(C#N)c(C)n3)nc12` [Compound 16, (E)-6-((4-Amino-8-(4-(2-cyanovinyl)-2,6-dimethylphenyl)quinazolin-2-yl)amino)-2-methylnicotinonitrile], the concentration giving a half-maximal response (EC50) in assay [1] (setting [4]) was 6.3 nM; in assay [1] (setting [5]), 7.5 nM; in assay [2], 42.6 nM; in assay [3] it was 12.5 nM. Also, the “FC against mutant Y181C” value in assay [2] is 5.7. Moreover, in assay [3], the “FC against mutant K103N” value was determined as 1.7.
Regarding `CC(C#N)=Cc1cc(C)c(-c2cccc3c(N)nc(Nc4ccc(C#N)cc4)nc23)c(C)c1` (racemic) [Compound 40, 4-((4-Amino-8-(4-(2-cyanoprop-1-en-1-yl)-2,6-dimethylphenyl)quinazolin-2-yl)amino)benzonitrile], the half-maximal effective concentration (EC50) in assay [1] (setting [4]) worked out at 6.8 nM; in assay [1] (setting [5]), 9.9 nM; in assay [2] it was 36.1 nM; in assay [3], 16.3 nM. For the same molecule, in assay [2], the “FC against mutant Y181C” value is listed as 3.7. Besides, the “FC against mutant K103N” value in assay [3] is listed as 1.7.
In the case of `Cc1cc(/C=C/C#N)cc(C)c1-c1cc(F)cc2cnc(Nc3ccc(C#N)cn3)nc12` [Compound 14, (E)-6-((8-(4-(2-Cyanovinyl)-2,6-dimethylphenyl)-6-fluoroquinazolin-2-yl)amino)nicotinonitrile], the EC50 came out at 8.1 nM in assay [1] (setting [4]), 12.7 nM in assay [1] (setting [5]), 122 nM in assay [2] and 15.1 nM in assay [3]. The “FC against mutant Y181C” value in assay [2] is recorded as 9.6. Moreover, the “FC against mutant K103N” value in assay [3] amounted to 1.2.
For the molecule `CCc1cc(/C=C/C#N)cc(CC)c1-c1cccc2c(N)nc(Nc3ccc(C#N)cn3)nc12` [Compound 36, (E)-6-((4-Amino-8-(4-(2-cyanovinyl)-2,6-diethylphenyl)quinazolin-2-yl)amino)nicotinonitrile], the EC50 was determined as 7.7 nM in assay [1] (setting [4]), 10.5 nM in assay [1] (setting [5]), 87.3 nM in assay [2] and 10.1 nM in assay [3]. Moreover, in assay [2], the “FC against mutant Y181C” value was 8.3. Also, the “FC against mutant K103N” value in assay [3] came to 1.0.
On to `Cc1cc(/C=C/C#N)cc(C)c1-c1cc(N)cc2c(N)nc(Nc3ccc(C#N)cn3)nc12` [Compound 23, (E)-6-((4,6-Diamino-8-(4-(2-cyanovinyl)-2,6-dimethylphenyl)quinazolin-2-yl)amino)nicotinonitrile], for which the EC50 in assay [1] (setting [4]) was 8.7 nM.
